In patent publication US20230293530A1, “AGENTS FOR SENSITIZING SOLID TUMORS TO TREATMENT” (Yeda Research and Development Co. Ltd., priority 2020, published 2023):

Assays:
[1] = tested on: NSCLC PDX explants with autologous CD8+ T cells; assay: Co-culture of NSCLC PDX tumor explants with autologous CD8+ T cells, IFNγ ELISA; format: cell-based, human; details: for IFNγ secretion by autologous CD8+ T cells, anti-PD1 plus mizoribine-treated explants: explants pre-treated with mizoribine 0.3 mM 10 hrs, nivolumab or pembrolizumab 20 µg/mL, 18 hours
Source text: Two patients bearing metastatic non-small cell lung cancer (NSCLC) were included in this study. Blood samples and fresh tumor tissue samples were procured just after their biopsy with patient consent and with Helsinki approval (number 0093-19-SOR). The samples were placed in serum free DMEM (Gibco) media then processed for implantation in NSG (NOD scid gamma) mice. Tumor tissue samples were implanted subcutaneously in dorsal flanks of the mice to form patient-derived xenografts (PDXs). All animal experiments were done under Institutional Animal Care and Use Committee (IACUC) of Ben-Gurion University of the Negev (BGU’s IACUC) according to specified protocols aiming to ensure animal welfare and reduce su □ ering. The Animal ethical clearance protocol number used for this research is IL-80-12-2015. After isolation of peripheral blood mononuclear cells (PBMCs) from the peripheral blood of the patients according to standard protocol using Lymphocyte Separation Medium (LSM, MP Biomedicals, SKU 0850494-CF), CD8^+ T cells were isolated from PBMCs by employing human CD8 Microbeads (Miltenyi Biotec, 130-045-201), LS column (Miltenyi Biotec, 130-042-401) and MidiMACS Separator (130-042-302) following manufacturer’s protocol. For culturing and maintenance of CD8 T cells, RPMI containing 10% human male AB plasma (Sigma, H4522), 1 mM sodium pyruvate, 2 mM L-glutamine, 0.1 mM MEM non-essential amino acids, 1% penicillin/streptomycin, 10 mM HEPES (Life Technologies), 200 IU/mL recombinant human IL-2 (PeproTech) and 50 ng/mL anti-human CD3 Antibody (BioLegend, 317302) were used for the first 48 hrs followed by culturing and passaging in media containing 200 IU/mL of IL-2.
2×2×2 mm^3 tumor tissue explants were cut from PDXs with a specific tissue cutter and seeded singly in 48 well flat-bottom plates and incubated with either mizoribine (0.3 mM) in 400 µl of media or with only media for 10 hrs. Then, explants were washed once and transferred into new 48 well flat-bottom plates containing 2×10^5 CD8+T cells/well along with nivolumab (Opdivo, 20 µg/mL), pembrolizumab (Keytruda, 20 µg/mL) or mock solventin fresh 400 µl RPMI containing 20 IU/ml ofIL-2. After 18 hours of incubation, the supernatant was collected from the wells and then assayed for standard IFNγ ELISA assay (ELISA MAX, Biolegend) according to manufacturer’s instructions.
Two patients bearing metastatic non-small cell lung cancer (NSCLC) were included in this study. Blood samples and fresh tumor tissue samples were procured just after their biopsy with patient consent and with Helsinki approval (number 0093-19-SOR). The samples were placed in serum free DMEM (Gibco) media then processed for implantation in NSG (NOD scid gamma) mice (NOD.Cg-Prkdcscid Il2rgtm1Wjl, The Jackson Laboratory). Tumor tissue samples were implanted subcutaneously in dorsal flanks of the 7-9 weeks old male mice to form patient-derived xenografts (PDXs).
After isolation of peripheral blood mononuclear cells (PBMCs) from the peripheral blood of the patients according to standard protocol using Lymphocyte Separation Medium (LSM, MP Biomedicals, SKU 0850494-CF), CD8^+ T cells were isolated from PBMCs by employing human CD8 Microbeads (Miltenyi Biotec, 130-045-201), LS column (Miltenyi Biotec, 130-042-401) and MidiMACS Separator (130-042-302) following manufacturer’s protocol. For culturing and maintenance of CD8 T cells, RPMI containing 10% human male AB plasma (Sigma, H4522), 1 mM sodium pyruvate, 2 mM L-glutamine, 0.1 mM MEM non-essential amino acids, 1% penicillin/streptomycin, 10 mM HEPES (Life Technologies), 200 IU/mL recombinant human IL-2 (PeproTech) and 50 ng/mL anti-human CD3 Antibody (BioLegend, 317302) were used for the first 48 hrs followed by culturing and passaging in media containing 200 IU/mL of IL-2.
PDXs from patients with lung cancer non responsive to anti-PD1 were exposed to no treatment, to mizoribine, or to either EDHB (left panel) or Viagra (right panel). […]

4T1 breast cancer cells = assay: In-vitro EDHB nucleotide analysis by LC-MS, 4T1; format: cell-based, murine; details: 4T1 cells, 200 uM EDHB, 8 hours
Source text: LC-MS analysis: The LC-MS/MS instrument consisting of an Acquity I-class UPLC system (Waters) and Xevo TQ-S triple quadrupole mass spectrometer (Waters), equipped with an electrospray ion source, and operated in positive ion mode was used for analysis of nucleoside monophosphates. MassLynx and TargetLynx software (version 4.1, Waters) were applied for the acquisition and analysis of data. Chromatographic separation was done on a 100 mm × 2.1 mm internal diameter, 1.8-µm UPLC HSS T3 column equipped with 50 mm × 2.1 mm internal diameter, 1.8-µm UPLC HSS T3 pre-column (both Waters Acquity) with mobile phases A (10 mM ammonium acetate and 5 mM ammonium hydrocarbonate buffer, pH 7.65 adjusted with 10% acetic acid) and B (acetonitrile) at a flow rate of 0.3 mL min-1 and column temperature 25° C. […] Nucleotide concentration was calculated using a standard curve of the relevant nucleotide concentration in each sample. Standard curves included increasing concentration of all measured nucleotides ranging from 0-10 ug/ml that were positioned at the beginning and at the end of each run. All the calculated values for the different nucleotides in each sample fell within the standard curve range. […]

4T1 cells = assay: In-vivo EDHB experiment, 4T1 tumors in mammary fat pad; parameters: species or system female BALB/c mice
Method: In-vivo EDHB experiment: Eight-week-old female BALB/c mice were inoculated with 4T1 in the mammary fat pad (1 × 10^6 cells). ethyl 3,4 dihydroxybenzoate (EDHB) treatment was started after 4 days when the primary tumor nodule was established and palpable. EDHB (40 mg per kg) was intraperitoneally injected daily into cancer-bearing mice. EDHB was initially dissolved in 100% Ethanol and diluted to required concentration in saline. 95% Saline/5% Ethanol mix without drug was injected as a vehicle to control animals. Following injection, mice were treated with 250 ug of anti PD-1 antibody on days 7, 11, 13, 15. On day 19, mice were euthanized and tumors were removed and weighted.

A549 cells = assay: Nucleotide levels by LC-MS with or without methotrexate; format: cell-based; details: 1.2 µM Methotrexate
Method: Methotrexate treatment: A549 cells were grown for 48 hr in control medium or supplemented with 1.2 µM Methotrexate (Holland-Moran). Nucleotide levels were measured as described below by LC-MS. Purine/pyrimidine ratio was calculated by dividing (AMP+GMP+ATP+ADP+GTP) concentration by (UMP+CMP+TMP+UTP+CTP+TTP) concentration.
LC-MS analysis: The LC-MS/MS instrument consisting of an Acquity I-class UPLC system (Waters) and Xevo TQ-S triple quadrupole mass spectrometer (Waters), equipped with an electrospray ion source, and operated in positive ion mode was used for analysis of nucleoside monophosphates. MassLynx and TargetLynx software (version 4.1, Waters) were applied for the acquisition and analysis of data. Chromatographic separation was done on a 100 mm × 2.1 mm internal diameter, 1.8-µm UPLC HSS T3 column equipped with 50 mm × 2.1 mm internal diameter, 1.8-µm UPLC HSS T3 pre-column (both Waters Acquity) with mobile phases A (10 mM ammonium acetate and 5 mM ammonium hydrocarbonate buffer, pH 7.65 adjusted with 10% acetic acid) and B (acetonitrile) at a flow rate of 0.3 mL min-1 and column temperature 25° C. A gradient was used as follows: for 0-3 min the column was held at 0.2% B, then 3-3.5 min a linear increase to 100% B, 3.5-4.0 min held at 100% B, 4.0-4.5 min back to 0.2% B and equilibration at 0.2% B for 2.5 min. Samples kept at 8° C. were automatically injected in a volume of 3 µl. For mass spectrometry, argon was used as the collision gas with a flow of 0.10 mL min-1. The capillary voltage was set to 2.50 kV, source temperature 150° C., desolvation temperature 400° C., cone gas flow 150 1 hr-1, desolvation gas flow 800 1 hr-1. Nucleotide concentration was calculated using a standard curve of the relevant nucleotide concentration in each sample. Standard curves included increasing concentration of all measured nucleotides ranging from 0-10 ug/ml that were positioned at the beginning and at the end of each run. All the calculated values for the different nucleotides in each sample fell within the standard curve range. Analytes were detected in positive mode using multiple-reaction monitoring listed in Lee, J. S. et al. 2018 (REF_9).
Nucleotide levels of 4T1 cells grown either with or without 1.2 µM Methotrexate (Holland-Moran) for 48 h, were measured and quantified by liquid chromatography-mass spectrometry (LC-MS) as µg/mg protein.

Compound: CCOC(=O)c1ccc(O)c(O)c1 [EDHB, Ethyl 3,4 dihydroxybenzoate]
- response to anti-PD1 therapy (IFN-g response) in PDX of non responsive patients ([1]; PDXs from lung cancer patients non responsive to anti-PD1, IFN-g measured following anti-PD1): increases response to anti-PD1 therapy
- cellular deoxypyrimidine to deoxypurine ratio (pyrimidine / purine ratio) (4T1 breast cancer cells): increase in pyrimidine / purine ratio
- tumor weight, EDHB and anti PD-1 combination treatment (4T1 cells; 40 mg/kg EDHB IP daily from day 4, 250 ug anti PD-1 IP days 7, 11, 13, 15): reduces tumor weight
- total weight of the mice (4T1 cells; 40 mg/kg EDHB IP daily, with anti PD-1): did not cause any change

Compound: CN(Cc1cnc2nc(N)nc(N)c2n1)c1ccc(C(=O)N[C@@H](CCC(=O)O)C(=O)O)cc1 [Methotrexate]
- AMP level, Methotrexate Treatment (A549 cells; 48 h, 4T1 cells): 483.2 µg/mg pt
- ATP level, Methotrexate Treatment (A549 cells; 48 h, 4T1 cells): 75.1 µg/mg pt
- CMP level, Methotrexate Treatment (A549 cells; 48 h, 4T1 cells): 7.3 µg/mg pt
- CTP level, Methotrexate Treatment (A549 cells; 48 h, 4T1 cells): 12.0 µg/mg pt
- GMP level, Methotrexate Treatment (A549 cells; 48 h, 4T1 cells): 28.46 µg/mg pt
- GTP level, Methotrexate Treatment (A549 cells; 48 h, 4T1 cells): 16.7 µg/mg pt
- TMP level, Methotrexate Treatment (A549 cells; 48 h, 4T1 cells): 0.0078 µg/mg pt
- TTP level, Methotrexate Treatment (A549 cells; 48 h, 4T1 cells): 0.004432 µg/mg pt
- UMP level, Methotrexate Treatment (A549 cells; 48 h, 4T1 cells): 38.39 µg/mg pt
- UTP level, Methotrexate Treatment (A549 cells; 48 h, 4T1 cells): 36.9 µg/mg pt
- purine to pyrimidine ratio (A549 cells; high ASS1 expressing lung cancer cells (A549), 48 hr): decreased their purine to pyrimidine ratio

Compound: nivolumab: anti-PD1 antibody
- IFNγ secretion by autologous CD8+ T cells, anti-PD1 plus mizoribine-treated explants [1]: significant elevation in IFNγ secretion

Compound: pembrolizumab: anti-PD1 antibody
- IFNγ secretion by autologous CD8+ T cells, anti-PD1 plus mizoribine-treated explants [1]: significant elevation in IFNγ secretion
